Several values for one entry are separate records, joined by “and”; a condition that tells them apart may be missing. Equal entries are not always repeated. Toxic doses and inconclusive results are not listed. The calls were made as follows: active = survival T/C of 150% or more; inactive = T/C below 125% in these data.
Tested on: P388 leukemia ip, CD2F1 mice, survival T/C
Assay: NCI In Vivo Anticancer Drug Screen. Data for tumor model P388 Leukemia (intraperitoneal) in CD2F1 (CDF1) mice
Settings: endpoint: median survival time, higher = longer survival
Procedure, shortened: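 Mice carrying the transplanted tumor received test compound or vehicle. Survival was recorded in each group, and the value is the treated-group measurement divided by that of the vehicle-treated control group.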

[1] = dose: 50.0 mg/kg/injection, schedule: Q01DX009 (ip), vehicle: Klucel (hydroxypropylcellulose) (HPC)
[2] = dose: 100.0 mg/kg/injection, schedule: Q01DX009 (ip), vehicle: Klucel (hydroxypropylcellulose) (HPC)
[3] = dose: 200.0 mg/kg/injection, schedule: Q01DX009 (ip), vehicle: Klucel (hydroxypropylcellulose) (HPC)
[4] = dose: 100.0 mg/kg/injection, schedule: Q04DX002 (ip), vehicle: saline with Tween-80
[5] = dose: 100.0 mg/kg/injection, schedule: Q04DX003 (ip), vehicle: saline
[6] = dose: 200.0 mg/kg/injection, schedule: Q04DX003 (ip), vehicle: saline
[7] = dose: 400.0 mg/kg/injection, schedule: Q04DX003 (ip), vehicle: saline
[8] = dose: 100.0 mg/kg/injection, schedule: Q01DX009 (ip), vehicle: saline with Tween-80
[9] = dose: 200.0 mg/kg/injection, schedule: Q01DX009 (ip), vehicle: saline with Tween-80
[10] = dose: 12.5 mg/kg/injection, schedule: Q01DX009 (ip), vehicle: saline with Tween-80
[11] = dose: 25.0 mg/kg/injection, schedule: Q01DX009 (ip), vehicle: saline with Tween-80
[12] = dose: 50.0 mg/kg/injection, schedule: Q01DX009 (ip), vehicle: saline with Tween-80
[13] = dose: 100.0 mg/kg/injection, schedule: Q04DX003 (ip), vehicle: Klucel (hydroxypropylcellulose) (HPC)
[14] = dose: 200.0 mg/kg/injection, schedule: Q04DX003 (ip), vehicle: Klucel (hydroxypropylcellulose) (HPC)

Measured: T/C

C=CCC(C)/C(=N\[N+](C)(C)C)c1ccccc1 (stereo not drawn)
inactive: dose: 12.5 mg/kg/injection, schedule: Q01DX001 (ip), vehicle: saline 100 % of control | dose: 25.0 mg/kg/injection, schedule: Q01DX001 (ip), vehicle: saline 106 % of control | dose: 50.0 mg/kg/injection, schedule: Q01DX001 (ip), vehicle: saline 99 % of control

COc1ccc(N=Cc2ccccc2P(c2ccccc2)c2ccccc2)cc1
inactive: [1] 101 % of control | [2] 100 % of control | [3] 100 % of control

CSC(/C=C1\C=CC=CN1Cc1ccccc1)=NC#N
inactive: dose: 25.0 mg/kg/injection, schedule: Q04DX002 (ip), vehicle: saline with Tween-80 100 % of control | dose: 50.0 mg/kg/injection, schedule: Q04DX002 (ip), vehicle: saline with Tween-80 92 % of control | [4] 99 % of control

CN(C)C(=S)SSC(C)(C)C
inactive: dose: 50.0 mg/kg/injection, schedule: Q01DX005 (ip), vehicle: Klucel (hydroxypropylcellulose) (HPC) 100 % of control | dose: 100.0 mg/kg/injection, schedule: Q01DX005 (ip), vehicle: Klucel (hydroxypropylcellulose) (HPC) 99 % of control | dose: 200.0 mg/kg/injection, schedule: Q01DX005 (ip), vehicle: Klucel (hydroxypropylcellulose) (HPC) 100 % of control

O=C1C=C(O)C(=O)C(CC2=C(O)C(=O)C=C(O)C2=O)=C1O
inactive: dose: 12.5 mg/kg/injection, schedule: Q01DX005 (ip), vehicle: Klucel (hydroxypropylcellulose) (HPC) 101 % of control and 90 % of control | dose: 25.0 mg/kg/injection, schedule: Q01DX005 (ip), vehicle: Klucel (hydroxypropylcellulose) (HPC) 86 % of control and 90 % of control and 95 % of control

Cc1cc[n+](-c2nc3c([O-])n(C)c(=O)n(C)c-3n2)cc1
inactive: [5] 99 % of control | [6] 99 % of control | [7] 94 % of control

O=[N+]([O-])c1ccc2nc(CC(O)(C(F)(F)F)C(F)(F)F)ccc2c1
inactive: [8] 115 % of control | [9] 90 % of control | dose: 400.0 mg/kg/injection, schedule: Q01DX009 (ip), vehicle: saline with Tween-80 95 % of control

Cn1nnc(-c2ccccc2)n1
inactive: [4] 107 % of control | dose: 200.0 mg/kg/injection, schedule: Q04DX002 (ip), vehicle: saline with Tween-80 102 % of control | dose: 400.0 mg/kg/injection, schedule: Q04DX002 (ip), vehicle: saline with Tween-80 112 % of control

CCCCCC(CC(=O)O)C(N)C(=O)O (stereo not drawn)
inactive: [1] 104 % of control | [2] 103 % of control | [3] 99 % of control

Cc1ccc(C(=O)C(CN(C)C)CN(C)C)cc1C
inactive: dose: 3.12 mg/kg/injection, schedule: Q01DX005 (ip), vehicle: saline 109 % of control | dose: 6.25 mg/kg/injection, schedule: Q01DX005 (ip), vehicle: saline 119 % of control and 124 % of control | dose: 25.0 mg/kg/injection, schedule: Q01DX005 (ip), vehicle: saline 114 % of control

CSC(C(=O)c1ccccc1)c1ccccc1 (stereo not drawn)
inactive: dose: 25.0 mg/kg/injection, schedule: Q01DX009 (ip), vehicle: saline + alcohol 87 % of control | dose: 50.0 mg/kg/injection, schedule: Q01DX009 (ip), vehicle: saline + alcohol 96 % of control | dose: 100.0 mg/kg/injection, schedule: Q01DX009 (ip), vehicle: saline + alcohol 112 % of control

O=C1c2ccccc2C(O)(C#Cc2ccccc2)c2c1oc1c2ccc2ccccc21 (stereo not drawn)
inactive: [10] 97 % of control | [11] 92 % of control | [12] 90 % of control | [8] 108 % of control

ON=C1CCC(=NO)CC1
inactive: dose: 25.0 mg/kg/injection, schedule: Q04DX003 (ip), vehicle: saline 101 % of control | dose: 50.0 mg/kg/injection, schedule: Q04DX003 (ip), vehicle: saline 100 % of control | [5] 95 % of control | [6] 107 % of control | [7] 101 % of control

CCCCCCCCCCCCCC[N+]1([O-])CCOCC1
inactive: dose: 25.0 mg/kg/injection, schedule: Q04DX002 (ip), vehicle: saline 104 % of control | dose: 50.0 mg/kg/injection, schedule: Q04DX002 (ip), vehicle: saline 104 % of control | dose: 100.0 mg/kg/injection, schedule: Q04DX002 (ip), vehicle: saline 104 % of control and 94 % of control

COC(=O)c1nc(NN)[nH]c(=O)c1C
inactive: dose: 15.0 mg/kg/injection, schedule: Q01DX005 (ip), vehicle: saline with Tween-80 103 % of control | dose: 30.0 mg/kg/injection, schedule: Q01DX005 (ip), vehicle: saline with Tween-80 98 % of control | dose: 60.0 mg/kg/injection, schedule: Q01DX005 (ip), vehicle: saline with Tween-80 99 % of control and 97 % of control

Clc1ccccc1CN1COc2c(ccc3ccccc23)C1
inactive: [13] 95 % of control | [14] 100 % of control | dose: 400.0 mg/kg/injection, schedule: Q04DX003 (ip), vehicle: Klucel (hydroxypropylcellulose) (HPC) 104 % of control

CC1=CC(=O)[C@@H](O)[C@]2(C)[C@H]3[C@@H](O)[C@H](O)[C@@](C)(O)[C@@H]4[C@@H](O)C(=O)O[C@H](C[C@@H]12)[C@]34C
inactive: dose: 1.0 mg/kg/injection, schedule: Q01DX009 (ip), vehicle: saline + alcohol 99 % of control | dose: 2.0 mg/kg/injection, schedule: Q01DX009 (ip), vehicle: saline + alcohol 101 % of control | dose: 4.0 mg/kg/injection, schedule: Q01DX009 (ip), vehicle: saline + alcohol 99 % of control | dose: 8.0 mg/kg/injection, schedule: Q01DX009 (ip), vehicle: saline + alcohol 99 % of control

COC1=CP(C)(=S)CC1 (stereo not drawn)
inactive: [13] 112 % of control | [14] 98 % of control

CC1=NN(C(=O)c2ccncc2)C(=O)C1N=Nc1ccc(S(=O)(=O)Nc2nccs2)cc1 (stereo not drawn)
inactive: [12] 102 % of control | [8] 97 % of control | [9] 96 % of control

Nc1c(S(=O)(=O)O)cc(Nc2ccc(S(=O)(=O)O)c(Nc3nc(Cl)nc(Cl)n3)c2)c2c1C(=O)c1ccccc1C2=O
inactive: dose: 60.0 mg/kg/injection, schedule: Q01DX005 (ip), vehicle: saline 118 % of control | dose: 120.0 mg/kg/injection, schedule: Q01DX005 (ip), vehicle: saline 110 % of control | dose: 240.0 mg/kg/injection, schedule: Q01DX005 (ip), vehicle: saline 110 % of control

Cc1cc(Nc2nnc(-c3cccnc3Oc3ccccc3)s2)ccc1Br
inactive: [10] 88 % of control | [11] 92 % of control | [12] 105 % of control and 91 % of control | [8] 94 % of control | [9] 103 % of control

CCOC(=O)[C](=[N+]=[N-])[Hg][C](=[N+]=[N-])C(=O)OCC
inactive: dose: 1.56 mg/kg/injection, schedule: Q04DX003 (ip), vehicle: saline 100 % of control | dose: 3.12 mg/kg/injection, schedule: Q04DX003 (ip), vehicle: saline 101 % of control | dose: 6.25 mg/kg/injection, schedule: Q04DX003 (ip), vehicle: saline 100 % of control

CC(C)NCC(N)C(=O)O (stereo not drawn)
inactive: dose: 55.0 mg/kg/injection, schedule: Q01DX001 (ip), vehicle: saline 102 % of control | dose: 110.0 mg/kg/injection, schedule: Q01DX001 (ip), vehicle: saline 102 % of control | dose: 220.0 mg/kg/injection, schedule: Q01DX001 (ip), vehicle: saline 99 % of control
